Results on 22 molecules are retold here after patent US9255100B2 (BAYER INTELLECTUAL PROPERTY GMBH, priority 2010, dated 2016).

A value given as a limit tells only on which side of the number the result lay.

The target of the first data set is T1, N-terminally GST-tagged human full length recombinant Mps-1 kinase (Homo sapiens, UniProt P33981).
T1 construct: N-terminally GST-tagged human full length recombinant Mps-1 kinase; purchased Invitrogen, Karslruhe, Germany PV4071
T1 sequence (P33981 1-857): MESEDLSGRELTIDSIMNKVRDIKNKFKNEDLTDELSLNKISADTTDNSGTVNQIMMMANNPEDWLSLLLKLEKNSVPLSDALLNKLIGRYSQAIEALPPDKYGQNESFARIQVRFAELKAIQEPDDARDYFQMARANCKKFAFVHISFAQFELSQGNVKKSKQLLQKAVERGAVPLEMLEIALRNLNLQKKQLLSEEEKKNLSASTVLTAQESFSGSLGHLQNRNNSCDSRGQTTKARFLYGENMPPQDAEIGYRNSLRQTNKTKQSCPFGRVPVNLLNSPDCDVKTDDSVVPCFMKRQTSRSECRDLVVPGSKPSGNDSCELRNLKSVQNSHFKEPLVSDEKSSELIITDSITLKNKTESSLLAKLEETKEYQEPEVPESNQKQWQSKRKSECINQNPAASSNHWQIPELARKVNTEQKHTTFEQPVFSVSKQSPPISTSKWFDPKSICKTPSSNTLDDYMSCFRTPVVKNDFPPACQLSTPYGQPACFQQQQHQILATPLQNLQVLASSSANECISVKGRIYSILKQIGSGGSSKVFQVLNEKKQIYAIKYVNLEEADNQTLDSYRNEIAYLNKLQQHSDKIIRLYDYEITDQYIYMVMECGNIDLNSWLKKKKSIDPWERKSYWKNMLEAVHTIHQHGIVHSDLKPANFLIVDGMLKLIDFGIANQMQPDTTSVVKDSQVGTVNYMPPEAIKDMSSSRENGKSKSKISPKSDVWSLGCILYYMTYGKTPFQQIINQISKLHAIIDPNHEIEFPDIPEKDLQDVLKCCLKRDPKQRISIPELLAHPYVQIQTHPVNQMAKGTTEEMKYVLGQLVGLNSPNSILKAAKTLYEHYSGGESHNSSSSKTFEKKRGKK
The data set is described as follows: Mps-1 kinase assay (TR-FRET). Conditions: Mps1 IC50 [nM], 10 μM ATP, 1 μM peptide substrate, 60 min at 22° C. It counts as biochemical. In short, it runs like this: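 TR-FRET signal between a Europium anti-phospho-Ser/Thr antibody and streptavidin-XLent reported phosphorylation of a biotinylated peptide by GST-tagged full-length Mps-1. Enzyme was near 1 nM final, chosen per lot for linearity.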
A general note: TR-FRET usually uses a lanthanide donor and a delayed reading to cut background.
As usually defined, the IC50 is the point on the concentration scale where inhibition reaches its midpoint. For the molecule `Cc1cc(-c2cnc3c(NCCN4CCOCC4)cc(Oc4cccc(F)c4)nn23)ccc1C(=O)NC1CC1` [Example 500, N-cyclopropyl-4-[6-(3-fluoro-phenoxy)-8-{[2-(morpholin-4-yl)ethyl]amino}imidazo[1,2-b]pyridazin-3-yl]-2-methylbenzamide], the IC50 worked out at 0.1 nM. Still for that read-out and setting: to `Cc1cc(-c2cnc3c(NCCN4CCOCC4)cc(Oc4cccc(F)c4F)nn23)ccc1C(=O)NC1CC1` [Example 536, N-cyclopropyl-4-[6-(2,3-difluorophenoxy)-8-{[2-(morpholin-4-yl)ethyl]amino}imidazo[1,2-b]pyridazin-3-yl]-2-methylbenzamide] belongs 0.3 nM; to `Cc1cc(-c2cnc3c(NCC(C)(C)O)cc(S(C)(=O)=O)nn23)ccc1C(=O)NC1CC1` [Example 18, N-cyclopropyl-4-{8-[(2-hydroxy-2-methylpropyl)amino]-6-(methylsulfonyl)imidazo[1,2-b]pyridazin-3-yl}-2-methylbenzamide], 228 nM. As for `Cc1cc(-c2cnc3c(NCCC(F)(F)F)cc(Oc4ccc5ncccc5c4)nn23)ccc1C(=O)NC1CC1` [Example 169, N-cyclopropyl-2-methyl-4-{6-(quinolin-6-yloxy)-8-[(3,3,3-trifluoro-propyl)amino]imidazo[1,2-b]pyridazin-3-yl}benzamide], the IC50 was 0.1 nM. On the same count and under the same terms, the figure for `Cc1cc(-c2cnc3c(NCCC(F)(F)F)cc(Sc4ccccc4)nn23)ccc1C(=O)NC1CC1` [Example 207, N-cyclopropyl-2-methyl-4-{6-(phenylsulfanyl)-8-[(3,3,3-trifluoropropyl)amino]imidazo[1,2-b]pyridazin-3-yl}benzamide] is less than 1 nM; for `Cc1cc(-c2cnc3c(NCCCS(C)(=O)=O)cc(Oc4cccc(F)c4)nn23)ccc1C(=O)NC1CC1` [Example 508, N-cyclopropyl-4-[6-(3-fluoro-phenoxy)-8-{[3-(methylsulfonyl)propyl]amino}imidazo[1,2-b]pyridazin-3-yl]-2-methyl-benzamide] it is 0.2 nM; for `Cc1cccc(-c2cc(NCC(C)C)c3ncc(-c4ccc(C(=O)NC5CC5)cc4)n3n2)c1` [Example 105, N-cyclopropyl-4-{6-(3-methylphenyl)-8-[(2-methylpropyl)amino]imidazo[1,2-b]pyridazin-3-yl}benzamide] it is 3.5 nM.

Take `CNc1cc(Oc2ccc(OC)cc2F)nn2c(-c3ccc(C(=O)NC4CC4)c(C)c3)cnc12` [Example 534, N-cyclopropyl-4-[6-(2-fluoro-4-methoxy-phenoxy)-8-(methyl-amino)imidazo[1,2-b]pyridazin-3-yl]-2-methylbenzamide]: the IC50 was 0.1 nM. The same measure, in the same setting: the figure for `Cc1cc(-c2cnc3c(NCC4CCSCC4)cc(Oc4ccc(F)cc4)nn23)ccc1C(=O)NC1CC1` [Example 290, N-cyclopropyl-4-{6-(4-fluorophenoxy)-8-[(tetrahydro-2H-thiopyran-4-ylmethyl)amino]imidazo[1,2-b]pyridazin-3-yl}-2-methylbenzamide] is 0.3 nM. On the same count and under the same terms, the figure for `Cc1cc(-c2cnc3c(NCC(C)(C)O)cc(Nc4ccccc4CO)nn23)ccc1C(=O)NC1CC1` [Example 434, N-cyclopropyl-4-(6-{[2-(hydroxymethyl)phenyl]amino}-8-[(2-hydroxy-2-methylpropyl)amino]imidazo[1,2-b]pyridazin-3-yl)-2-methylbenzamide] is 1.3 nM. As to `Cc1cc(-c2cnc3c(NCC4COC4)cc(Oc4cccc(F)c4)nn23)ccc1C(=O)NC1CC1` [Example 495, N-cyclopropyl-4-{6-(3-fluoro-phenoxy)-8-[(oxetan-3-ylmethyl)amino]imidazo[1,2-b]pyridazin-3-yl}-2-methylbenzamide], the IC50 was found to be 0.1 nM. `Cc1cc(F)cc(Oc2cc(NCC(C)(C)O)c3ncc(-c4ccc(C(=O)NC5CC5)c(C)c4)n3n2)c1` [Example 87, N-cyclopropyl-4-{6-(3-fluoro-5-methylphenoxy)-8-[(2-hydroxy-2-methylpropyl)amino]imidazo[1,2-b]pyridazin-3-yl}-2-methylbenzamide]: the IC50 was determined as 0.2 nM. The same measure, in the same setting: the figure for `CC(C)CNc1cc(-c2cccc3cnccc23)nn2c(-c3ccc(C(=O)NC4CC4)cc3)cnc12` [Example 118, N-cyclopropyl-4-{6-(isoquinolin-5-yl)-8-[(2-methylpropyl)amino]imidazo[1,2-b]pyridazin-3-yl}benzamide] is 4.3 nM; for `Cc1cc(-c2cnc3c(NCCC(F)(F)F)cc(Oc4cccc(F)c4)nn23)ccc1C(=O)NCC(C)C` [Example 557, 4-{6-(3-fluorophenoxy)-8-[(3,3,3-trifluoropropyl)amino]imidazo[1,2-b]pyridazin-3-yl}-N-isobutyl-2-methylbenzamide] it is 2.2 nM; for `Cc1cc(-c2cnc3c(NCC4CC(=O)N(C)C4)cc(-c4ccccc4CO)nn23)ccc1C(=O)NC1CC1` (stereo not drawn) [Example 344, N-cyclopropyl-4-(6-[2-(hydroxy-methyl)phenyl]-8-{[(1-methyl-5-oxo-pyrrolidin-3-yl)methyl]amino}imidazo[1,2-b]pyridazin-3-yl)-2-methyl-benzamide] it is 23 nM. Take `CNC(=O)c1ccc(-c2cnc3c(NCc4cccs4)cc(Cl)nn23)cc1` [Example 190, 4-{6-Chloro-8-[(thiophen-2-yl-methyl)amino]imidazo[1,2-b]pyridazin-3-yl}-N-methylbenzamide]: the IC50 turned out to be 660 nM.

For the molecule `CSc1cc(NCC(O)C(F)(F)F)c2ncc(-c3ccc(C(=O)NC4CC4)c(C)c3)n2n1` (racemic) [Example 206, (RS)N-cyclopropyl-2-methyl-4-{6-(methylsulfanyl)-8-[(3,3,3-trifluoro-2-hydroxypropyl)amino]imidazo[1,2-b]pyridazin-3-yl}benzamide], the 50% inhibitory concentration (IC50) was 6.2 nM. Same read-out and setting: the figure for `Cc1cc(-c2cnc3c(NCCC(F)(F)F)cc(Nc4ccccc4CO)nn23)ccc1C(=O)NC1CC1` [Example 370] is 0.1 nM; for `Cc1cc(-c2cnc3c(NCCC(F)(F)F)cc(Nc4cccc(F)c4F)nn23)ccc1C(=O)NC1CC1` [Example 380, N-cyclopropyl-4-{6-[(2,3-difluorophenyl)amino]-8-[(3,3,3-trifluoropropyl)amino]imidazo[1,2-b]pyridazin-3-yl}-2-methylbenzamide] it is 0.1 nM.

As for `COc1cccc(Nc2cc(NCC(C)(C)O)c3ncc(-c4ccc(C(=O)NC5CC5)c(C)c4)n3n2)c1C` [Example 398, N-cyclopropyl-4-{8-[(2-hydroxy-2-methylpropyl)amino]-6-[(3-methoxy-2-methylphenyl)amino]imidazo[1,2-b]pyridazin-3-yl}-2-methylbenzamide], the IC50 was 0.4 nM.

In the next data set the test system is Hepatocytes from Han Wistar rats. The data set is described as follows: In vitro metabolic stability in rat hepatocytes (calculation of hepatic in vivo blood clearance and Fmax). Format: in vitro ADME. The note with it: maximal oral bioavailability calculated from half-life in rat hepatocytes, 1 μM test compound. On the procedure:
Investigation of In Vitro Metabolic Stability in Rat Hepatocytes (Including Calculation of Hepatic In Vivo Blood Clearance (CL))
Hepatocytes from Han Wistar rats were isolated via a 2-step perfusion method. After perfusion, the liver was carefully removed from the rat: the liver capsule was opened and the hepatocytes were gently shaken out into a Petri dish with ice-cold WME. The resulting cell suspension was filtered through sterile gaze in 50 ml falcon tubes and centrifuged at 50×g for 3 min at room temperature. The cell pellet was resuspended in 30 ml WME and centrifuged through a Percoll® gradient for 2 times at 100×g. The hepatocytes were washed again with Williams' medium E (WME) and resuspended in medium containing 5% FCS. Cell viability was determined by trypan blue exclusion.
For the metabolic stability assay liver cells were distributed in WME containing 5% FCS to glass vials at a density of 1.0×10^6 vital cells/ml. The test compound was added to a final concentration of 1 μM. During incubation, the hepatocyte suspensions were continuously shaken and aliquots were taken at 2, 8, 16, 30, 45 and 90 min, to which equal volumes of cold methanol were immediately added. Samples were frozen at −20° C. over night, after subsequently centrifuged for 15 minutes at 3000 rpm and the supernatant was analyzed with an Agilent 1200 HPLC-system with LCMS/MS detection.
The half-life of a test compound was determined from the concentration-time plot. From the half-life the intrinsic clearances were calculated. Together with the additional parameters liver blood flow, amount of liver cells in vivo and in vitro. The hepatic in vivo blood clearance (CL) and the maximal oral bioavailability (Fmax) was calculated. The following parameter values were used: Liver blood flow—4.2 L/h/kg rat; specific liver weight—32 g/kg rat body weight; liver cells in vivo—1.1×10^8 cells/g liver, liver cells in vitro—0.5×10^6/ml.
Turning to `Cc1cc(-c2cnc3c(NCCN4CCOCC4)cc(Oc4cccc(F)c4)nn23)ccc1C(=O)NC1CC1` [Example 500, N-cyclopropyl-4-[6-(3-fluoro-phenoxy)-8-{[2-(morpholin-4-yl)ethyl]amino}imidazo[1,2-b]pyridazin-3-yl]-2-methylbenzamide], the “Fmax [%]” value is listed as 40%. Consider `Cc1cc(-c2cnc3c(NCCN4CCOCC4)cc(Oc4cccc(F)c4F)nn23)ccc1C(=O)NC1CC1` [Example 536, N-cyclopropyl-4-[6-(2,3-difluorophenoxy)-8-{[2-(morpholin-4-yl)ethyl]amino}imidazo[1,2-b]pyridazin-3-yl]-2-methylbenzamide], for which the “Fmax [%]” value is 37%. Still for that read-out and setting: the figure for `COc1ccc(Oc2cc(NCC3CCOCC3)c3ncc(-c4ccc(C(=O)NC5CC5)cc4)n3n2)c(F)c1` [Example 444, N-cyclopropyl-4-{6-(2-fluoro-4-methoxyphenoxy)-8-[(tetrahydro-2H-pyran-4-ylmethyl)amino]imidazo[1,2-b]pyridazin-3-yl}benzamide] is 22%. Same read-out and setting: the figure for `O=C(NC1CC1)c1ccc(-c2cnc3c(NCCC(F)(F)F)cc(Oc4cccc(F)c4)nn23)cc1` [Example 463, N-cyclopropyl-4-{6-(3-fluorophenoxy)-8-[(3,3,3-trifluoropropyl)amino]imidazo[1,2-b]pyridazin-3-yl}benzamide] is 7%.
